Data: ChEMBL document CHEMBL2074285, “Characterization of the drug resistance and transport properties of multidrug resistance protein 6 (MRP6, ABCC6)” (Cancer Res, 2002)
Numbered stars: 1 amine (or outer) side, 2 acyl side, 3 side chain; on linkers, the order of the positions; unused ones are H or OH. Bridge positions count the residues as written; N and C are the ends. Square brackets hold non-standard residues; d marks the D form. Peptide text beside a SMILES is read from it. I, II: the chains in the order shown. Actinocin(9to1) = Cc1c2oc3c(C)ccc(C(=O)[*:1])c3nc-2c(C(=O)[*:2])c(N)c1=O; NMeV = CN[C@H](C(=O)O)C(C)C; Sar = CNCC(=O)O

Columns and labels:
[1] = target: T1, ATP-binding cassette sub-family C member 6 (Homo sapiens, UniProt O95255); experiment: TP_TRANSPORTER: drug resistance in MRP6-expressing CHO cells; type: functional, cell-based; details: hamster
[2] = target: T1, ATP-binding cassette sub-family C member 6; experiment: TP_TRANSPORTER: uptake in membrane vesicle from MRP6-expressing CHO cells; type: functional, cell membranes; details: hamster

T1 sequence (O95255 whole entry): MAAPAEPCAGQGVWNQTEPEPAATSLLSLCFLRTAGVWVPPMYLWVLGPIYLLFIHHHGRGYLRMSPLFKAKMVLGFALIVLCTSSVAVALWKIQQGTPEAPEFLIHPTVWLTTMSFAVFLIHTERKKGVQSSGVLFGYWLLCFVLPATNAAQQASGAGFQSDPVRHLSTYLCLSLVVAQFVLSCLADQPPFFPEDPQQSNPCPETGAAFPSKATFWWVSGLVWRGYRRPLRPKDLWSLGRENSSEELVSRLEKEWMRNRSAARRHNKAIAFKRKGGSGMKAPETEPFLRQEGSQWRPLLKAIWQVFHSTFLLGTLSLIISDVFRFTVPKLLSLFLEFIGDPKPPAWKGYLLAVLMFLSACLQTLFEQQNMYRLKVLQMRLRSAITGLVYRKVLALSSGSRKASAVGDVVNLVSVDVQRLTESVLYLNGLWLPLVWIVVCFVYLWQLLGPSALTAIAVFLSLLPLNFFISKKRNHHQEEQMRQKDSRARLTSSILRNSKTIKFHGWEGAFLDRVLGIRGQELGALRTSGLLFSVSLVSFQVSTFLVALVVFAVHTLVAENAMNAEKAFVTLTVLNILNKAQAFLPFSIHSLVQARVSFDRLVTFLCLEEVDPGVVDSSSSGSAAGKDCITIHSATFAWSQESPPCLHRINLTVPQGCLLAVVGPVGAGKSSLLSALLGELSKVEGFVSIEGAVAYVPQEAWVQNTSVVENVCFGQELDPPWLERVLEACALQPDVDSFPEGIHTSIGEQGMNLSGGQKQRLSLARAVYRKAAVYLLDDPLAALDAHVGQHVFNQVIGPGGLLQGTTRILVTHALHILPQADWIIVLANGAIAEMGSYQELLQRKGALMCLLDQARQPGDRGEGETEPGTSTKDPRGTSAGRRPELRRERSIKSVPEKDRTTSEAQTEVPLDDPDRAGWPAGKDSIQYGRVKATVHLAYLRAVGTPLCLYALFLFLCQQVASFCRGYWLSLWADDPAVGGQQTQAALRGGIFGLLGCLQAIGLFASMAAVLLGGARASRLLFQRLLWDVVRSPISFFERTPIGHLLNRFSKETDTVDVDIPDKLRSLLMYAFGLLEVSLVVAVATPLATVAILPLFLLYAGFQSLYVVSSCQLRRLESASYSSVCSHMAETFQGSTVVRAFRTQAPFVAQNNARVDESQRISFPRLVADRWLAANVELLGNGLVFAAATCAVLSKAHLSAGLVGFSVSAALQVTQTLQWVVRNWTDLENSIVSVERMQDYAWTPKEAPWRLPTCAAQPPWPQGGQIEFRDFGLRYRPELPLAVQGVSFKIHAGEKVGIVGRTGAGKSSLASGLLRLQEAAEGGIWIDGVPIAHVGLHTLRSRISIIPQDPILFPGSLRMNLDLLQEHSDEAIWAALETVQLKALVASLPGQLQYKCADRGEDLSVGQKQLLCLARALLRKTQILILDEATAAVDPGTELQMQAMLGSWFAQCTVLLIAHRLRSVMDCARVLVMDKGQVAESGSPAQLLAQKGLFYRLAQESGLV

| Compound | Activity [1] | Activity [2] |
| --- | --- | --- |
| COc1cccc2c1C(=O)c1c(O)c3c(c(O)c1C2=O)C[C@@](O)(C(C)=O)C[C@@H]3O[C@H]1C[C@H](N)[C@H](O)[C@H](C)O1 [DAUNORUBICIN] | substrate [] | – |
| CC(C)C[C@@H]1NC(=O)[C@@H](C(C)C)NC(=O)[C@@H]2CCCN2C(=O)[C@@H](CC(=O)O)NC(=O)[C@@H](Cc2c[nH]c3ccccc23)NC1=O [BQ-123] (HELM PEPTIDE1{L.[dW].[dD].P.[dV]}$PEPTIDE1,PEPTIDE1,1:R1-5:R2$$$V2.0) | – | substrate [+] |
| COc1cccc2c1C(=O)c1c(O)c3c(c(O)c1C2=O)C[C@@](O)(C(=O)CO)C[C@@H]3O[C@H]1C[C@H](N)[C@H](O)[C@H](C)O1 [DOXORUBICIN] | substrate [] | – |
| N[C@@H](CCC(=O)N[C@H](CSc1ccc([N+](=O)[O-])cc1[N+](=O)[O-])C(=O)NCC(=O)O)C(=O)O | – | substrate [+] |

Further lines, results first:

| Activity [1] | Activity [2] | Compound |
| --- | --- | --- |
| substrate [] | – | COc1cc([C@@H]2c3cc4c(cc3[C@@H](O[C@@H]3O[C@@H]5CO[C@@H](C)O[C@H]5[C@H](O)[C@H]3O)[C@H]3COC(=O)[C@H]23)OCO4)cc(OC)c1O [ETOPOSIDE] |
| substrate [] | – | COc1cc([C@@H]2c3cc4c(cc3[C@@H](O[C@@H]3O[C@@H]5CO[C@@H](c6cccs6)O[C@H]5[C@H](O)[C@H]3O)[C@H]3COC(=O)[C@H]23)OCO4)cc(OC)c1O [TENIPOSIDE] |
| substrate [] | – | Cc1c2oc3c(C)ccc(C(=O)N[C@@H]4C(=O)N[C@H](C(C)C)C(=O)N5CCC[C@H]5C(=O)N(C)CC(=O)N(C)[C@@H](C(C)C)C(=O)O[C@@H]4C)c3nc-2c(C(=O)N[C@@H]2C(=O)N[C@H](C(C)C)C(=O)N3CCC[C@H]3C(=O)N(C)CC(=O)N(C)[C@@H](C(C)C)C(=O)O[C@@H]2C)c(N)c1=O [DACTINOMYCIN] (I: T[dV]P[Sar][NMeV] / II: T[dV]P[Sar][NMeV]; ester I:1-I:C, II:1-II:C; linker I:N-II:N via Actinocin(9to1)) |
| – | substrate [+] | CCCCC/C=C\C\C=C/C=C/C=C/[C@@H](SC[C@@H](NC(=O)CC[C@H](N)C(=O)O)C(=O)NCC(=O)O)[C@@H](O)CCCC(=O)O [LEUKOTRIEN C4] |
| substrate [] | – | CISPLATIN |
